In assay [1] the target is T1, S. aureus UDP-N-acetylglucosamine enolpyruvoyl transferase, MurA (Staphylococcus aureus, UniProt P84058).
T1 sequence (P84058 1-421): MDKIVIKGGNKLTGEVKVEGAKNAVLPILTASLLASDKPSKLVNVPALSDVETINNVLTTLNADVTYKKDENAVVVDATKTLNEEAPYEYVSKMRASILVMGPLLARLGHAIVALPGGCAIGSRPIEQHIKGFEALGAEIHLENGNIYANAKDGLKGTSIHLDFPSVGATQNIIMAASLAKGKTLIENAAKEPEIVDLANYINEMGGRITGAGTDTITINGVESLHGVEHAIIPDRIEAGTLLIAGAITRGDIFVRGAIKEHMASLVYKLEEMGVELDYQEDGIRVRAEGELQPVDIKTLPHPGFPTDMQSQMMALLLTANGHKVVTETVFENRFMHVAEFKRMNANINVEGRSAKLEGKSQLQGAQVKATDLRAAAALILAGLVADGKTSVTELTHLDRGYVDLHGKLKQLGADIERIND
The assay can be described thus: Inhibitory activity against MurA (S. aureus). The assay is classed as biochemical. Conditions: (S) S. aureus enzyme. The method, then:
Evaluation of the Inhibitory Activity of Test Compounds Against Enzymes which Catalyze Bacterial Cell Wall Biosynthesis
S. aureus and E. coli UDP-N-acetylglucosamine enolpyruvoyl transferase, MurA
Preparation of Enzyme Solution:
The enzyme solution is prepared by admixing the following: 50 mM Tris/HCl pH 8.0, […] 1 M Tris, 5 mM DTT, […] 1 M DTT, 20% Glycerol 4 ml 50% Glycerol, add water to 10 ml.
Preparation of Stop Solution:
The stop solution is prepared by mixing the following: 4.2% ammonium molybdate in 4N HCl, 8.4 g/200 ml 4N HCl, 0.045% malachite green, 90 mg/200 ml water, then stir 1 part ammonium molybdate with 2 parts malachite green for 30 min.
A procedure similar to that described by C. T. Walsh in Biochemistry 33, 10646-10651, is used to evaluate the inhibitory activity of test compounds against MurA, the enzyme which catalyzes the first step of bacterial cell wall biosynthesis. Experiments are performed by adding a solution of test compound (in a mixture of dimethylsulfoxide and water) and an enzyme solution to a well. After a pre-incubation period of 10 mintues at 37° C., Tris/BME buffer and assay buffer are added. A start point optical density (OD0) reading is taken at 340 nm immediately following the addition of assay buffer. After incubation for 1 hr at 37° C., the stop solution is added and the color is allowed to develop for 30 minutes. An end point OD1 reading at […] is then taken. […]

The target of assay [2] is E. coli Enopyruvyl-UPD-N-acetylglucosamine reductase, Mur B (Escherichia coli, UniProt P08373). The assay can be described thus: biochemical. The note with it: (E) E. coli enzyme; for IC50: read-out: MurB IC50 (converted).
Assay [3] has as its target T2, S. aureus Enopyruvyl-UPD-N-acetylglucosamine reductase, Mur B (Staphylococcus aureus, UniProt P61431).
T2 sequence (P61431 1-307): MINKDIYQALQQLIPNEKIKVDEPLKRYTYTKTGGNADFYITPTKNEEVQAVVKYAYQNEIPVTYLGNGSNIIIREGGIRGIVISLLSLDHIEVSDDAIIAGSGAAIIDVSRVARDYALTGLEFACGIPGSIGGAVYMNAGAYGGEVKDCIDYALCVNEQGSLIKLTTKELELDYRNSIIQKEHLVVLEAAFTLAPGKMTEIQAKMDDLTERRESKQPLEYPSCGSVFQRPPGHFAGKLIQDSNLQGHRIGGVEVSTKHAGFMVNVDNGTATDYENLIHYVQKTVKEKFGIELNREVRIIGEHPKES
Nature of the assay: biochemical. The note with it: (S) S. aureus enzyme; for IC50: read-out: MurB IC50 (converted).

In assay [4] the test system is staphylococci. Nature of the assay: Minimum inhibitory concentration, microdilution broth method, staphylococci. The assay is classed as cell-based. Conditions: Mueller-Hinton broth, 18-22 hours at 35° C.; for MIC: Staphylococcus aureus. The essentials: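 Broth microdilution per NCCLS M7-A5 (2000). Staphylococci and enterococci grown in Mueller-Hinton broth; streptococci in Mueller-Hinton broth with 5% horse blood (LHB). Panel includes recent clinical isolates resistant to methicillin, penicillin and/or vancomycin.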

The mark [5] stands for this setting: S. aureus GC 1131, read-out: MIC S. aureus GC 1131.
Setting [6] is: S. aureus GC 4543, read-out: MIC S. aureus GC 4543.

Converted amounts (≈) assume the structure as drawn. Where two headings read alike, the source gives them in different places.

This is an account of results in patent publication US7495027B2, “3-aryl-4-hydroxyfuranone compounds and the human and animal health use thereof” (Wyeth, priority 2003, dated 2009).

Usually IC50 stands for the concentration that inhibits the measured activity by half. Broadly, the MIC is the least concentration at which growth counts as inhibited.

E. coli Enopyruvyl-UPD-N-acetylglucosamine reductase, Mur B, sequence (P08373 whole entry): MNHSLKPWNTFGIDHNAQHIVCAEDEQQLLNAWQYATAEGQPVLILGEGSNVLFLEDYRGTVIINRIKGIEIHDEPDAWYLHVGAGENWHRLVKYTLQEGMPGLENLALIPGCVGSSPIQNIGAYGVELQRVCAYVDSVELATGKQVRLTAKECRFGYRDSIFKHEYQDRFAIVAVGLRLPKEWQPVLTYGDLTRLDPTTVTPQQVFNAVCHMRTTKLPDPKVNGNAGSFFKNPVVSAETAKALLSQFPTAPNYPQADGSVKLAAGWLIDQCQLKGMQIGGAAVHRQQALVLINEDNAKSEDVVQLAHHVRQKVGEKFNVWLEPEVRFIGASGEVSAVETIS

With `O=C1O/C(=C\c2cccc3ccccc23)C(O)=C1c1ccc(C(F)(F)F)cc1` [Example 71], the values for the IC50 in assay [1], in assay [2] and in assay [3] were over 65.4 µM, 26.2 µM and 26.2 µM, respectively. In addition, the MIC in assay [4] (setting [5]) and in assay [4] (setting [6]) was 8 µg/mL (≈ 20.9 µM) throughout.
With `COc1cccc(C2=C(O)/C(=C/c3cccc4ccccc34)OC2=O)c1` [Example 72], the results for the IC50 in assay [1], in assay [2] and in assay [3] were over 72.6 µM, 61 µM and 58.1 µM, respectively. In addition, the MIC in assay [4] (setting [5]) and in assay [4] (setting [6]) was over 128 µg/mL in each case.
For the compound `COC(=O)c1ccc(C2=C(O)/C(=C/c3cccc4ccccc34)OC2=O)cc1` [Example 74], the results for the IC50 in assay [1], in assay [2] and in assay [3] were over 67.1 µM, 59.1 µM and 26.9 µM, respectively. For the same compound, the results for the MIC in assay [4] (setting [5]) and in assay [4] (setting [6]) were 64 µg/mL (≈ 172 µM) and over 128 µg/mL, respectively.
`CCOC(=O)c1cccc(C2=C(O)C(=Cc3cccc4ccccc34)OC2=O)c1` [Example 75]: the “MurA IC50” value in assay [1] was >25 (S) μg/mL. Moreover, the “MurB IC50” value in assay [2] was over 25 µg/mL; in assay [3], 24 µg/mL. Moreover, the “MIC S. aureus GC 1131” value in assay [4] (S. aureus GC 1131) was 64 µg/mL (≈ 166 µM). In addition, in assay [4] (S. aureus GC 4543), the “MIC S. aureus GC 4543” value was over 128 µg/mL.
As to `O=Cc1cccc(C2=C(O)/C(=C/c3cccc4ccccc34)OC2=O)c1` [Example 76], the results for the IC50 in assay [1], in assay [2] and in assay [3] were 17.5 µM, 20.4 µM and 14.6 µM, respectively. Further, the MIC in assay [4] (setting [5]) and in assay [4] (setting [6]) was over 128 µg/mL in each case.
Consider `O=C1O/C(=C\c2cccc3ccccc23)C(O)=C1c1cccc(C=NO)c1` [Example 77], for which the “MurA IC50” value in assay [1] was >25 (S) μg/mL. For the same compound, the “MurB IC50” value in assay [2] was 21 µg/mL; in assay [3], 10 µg/mL. In assay [4] (S. aureus GC 1131), the “MIC S. aureus GC 1131” value was over 128 µg/mL. Further, in assay [4] (S. aureus GC 4543), the “MIC S. aureus GC 4543” value was 64 µg/mL (≈ 179 µM).
Consider `CN(C)c1ccc(/C=C2\OC(=O)C(c3ccc(Cl)cc3)=C2O)c2ccccc12` [Example 78], for which the IC50 is over 63.8 µM in assay [1], 7.66 µM in assay [2] and 33.2 µM in assay [3]. Besides, the MIC in assay [4] (setting [5]) and in assay [4] (setting [6]) was 32 µg/mL (≈ 81.7 µM) each time.
Consider `CN(C)c1ccc(/C=C2\OC(=O)C(c3cc(Cl)cc(Cl)c3)=C2O)c2ccccc12` [Example 79], for which the IC50 was 32.8 µM in assay [1], 14.1 µM in assay [2] and 2.35 µM in assay [3]. The MIC in assay [4] (setting [5]) was 2 µg/mL (≈ 4.69 µM); in assay [4] (setting [6]), 1 µg/mL (≈ 2.35 µM).
With `CN(C)c1ccc(C=C2OC(=O)C(c3cc(Cl)cc(Cl)c3)=C2O)c2ccccc12` [Example 80], the “MurA IC50” value in assay [1] is recorded as 15 (S) μg/mL. Further, the “MurB IC50” value in assay [2] came to 3 µg/mL; in assay [3], 1 µg/mL. Further, the “MIC S. aureus GC 1131” value in assay [4] (S. aureus GC 1131) turned out to be 2 µg/mL (≈ 4.69 µM). Besides, in assay [4] (S. aureus GC 4543), the “MIC S. aureus GC 4543” value turned out to be 1 µg/mL (≈ 2.35 µM).
Consider `CN(C)c1ccc(/C=C2\OC(=O)C(c3ccc(C(F)(F)F)cc3)=C2O)c2ccccc12` [Example 81], for which the values for the IC50 in assay [1], in assay [2] and in assay [3] were over 58.8 µM, 54.1 µM and 35.3 µM, respectively. The minimal inhibitory concentration (MIC) in assay [4] (setting [5]) and in assay [4] (setting [6]) was 8 µg/mL (≈ 18.8 µM) in each case.
For `O=C1O/C(=C\c2cccc(-c3cc(Cl)cc(Cl)c3)c2)C(O)=C1c1cc(Cl)cc(Cl)c1` [Example 136], the half-inhibitory concentration (IC50) in assay [1] is 2.09 µM; in assay [3], 4.18 µM. Besides, in assay [2], the “MurB IC50” value came out at 3 µg/mL. Further, the MIC in assay [4] (setting [5]) and in assay [4] (setting [6]) was 0.25 µg/mL (≈ 0.523 µM) each time.
Consider `O=C1O/C(=C\c2ccccc2-c2ccc(Cl)cc2)C(O)=C1c1ccc(Cl)cc1` [Example 137], for which the IC50 in assay [1] was 31.8 µM; in assay [2] it was 51.3 µM; in assay [3], 7.33 µM. Further, the MIC in assay [4] (setting [5]) and in assay [4] (setting [6]) was 8 µg/mL (≈ 19.5 µM) in each case.
Turning to `O=C1O/C(=C\c2ccc(Cl)cc2)C(O)=C1c1ccc(-c2ccccc2)c(F)c1` [Example 138], the IC50 is 17.8 µM in assay [1], 56 µM in assay [2] and 7.64 µM in assay [3]. Besides, the MIC in assay [4] (setting [5]) and in assay [4] (setting [6]) was 4 µg/mL (≈ 10.2 µM) throughout.
As for `O=C1O/C(=C\c2ccccc2-c2cccc(Cl)c2)C(O)=C1c1cccc(Cl)c1` [Example 140], the IC50 in assay [1] was 26.9 µM; in assay [2], 9.77 µM; in assay [3], 7.33 µM. In addition, the MIC in assay [4] (setting [5]) and in assay [4] (setting [6]) was 1 µg/mL (≈ 2.44 µM) throughout.
Take `O=C1O/C(=C\c2ccccc2-c2ccc(Cl)c(Cl)c2)C(O)=C1c1ccc(Cl)c(Cl)c1` [Example 141]: the IC50 is 6.27 µM in assay [1] and 4.18 µM in assay [3]. Also, in assay [2], the “MurB IC50” value is listed as 2 (E); 2 (S) μg/mL. Besides, the MIC in assay [4] (setting [5]) was 0.5 µg/mL (≈ 1.05 µM); in assay [4] (setting [6]), 0.25 µg/mL (≈ 0.523 µM).
As for `O=C1O/C(=C\c2cc(C(F)(F)F)ccc2Cl)C(O)=C1c1ccc(N2CCOCC2)c(F)c1` [Example 142], the “MurA IC50” value in assay [1] was >25 (S) μg/mL. In addition, the “MurB IC50” value in assay [2] stood at 10 µg/mL; in assay [3], 21 µg/mL. In addition, the “MIC S. aureus GC 1131” value in assay [4] (S. aureus GC 1131) was found to be 64 µg/mL (≈ 136 µM). For the same compound, the “MIC S. aureus GC 4543” value in assay [4] (S. aureus GC 4543) is over 128 µg/mL.
Consider `O=C1O/C(=C\c2ccc(-c3ccccc3)cc2)C(O)=C1c1csc2ccccc12` [Example 143], for which the IC50 in assay [1] is over 63.1 µM; in assay [2], 17.7 µM; in assay [3], 10.1 µM. The MIC in assay [4] (setting [5]) and in assay [4] (setting [6]) was 8 µg/mL (≈ 20.2 µM) in each case.
As to `O=C1O/C(=C\c2ccc(-c3ccccc3)cc2)C(O)=C1c1cccs1` [Example 144], the IC50 was over 72.2 µM in assay [1], 57.7 µM in assay [2] and 28.9 µM in assay [3]. For the same compound, the MIC in assay [4] (setting [5]) and in assay [4] (setting [6]) was 16 µg/mL (≈ 46.2 µM) each time.
